Patent US20040224358A1, “Method for discovering one or more peptides adapted for specific binding to a microorganism of interest” (priority 2002, published 2004)

How the values were obtained:
[1] = test system: lipopolysaccharides from E.coli; assay: Dot blot binding of membrane-absorbed peptides to FITC-LPS from E.coli; conditions: 0-20 μg peptide on PVDF membrane, FIG. 1(a)
Description: (§1) Varying amounts of each peptide (ranging from 0-20 μg in 5 μg increments) were absorbed at a flow rate of approximately 0.15 ml/min. The membrane was blocked with 3% gelatin in TBS for 30 minutes at room temperature with gentle agitation and then was washed three times with TBS. Isolated, fluorescently-labeled lipopolysaccharides (FITC-LPS) from E.coli and Salmonella (Sigma Chemical Co.) were diluted in TBS to a final concentration of […] and were then bound to the membrane at room temperature with gentle agitation. The membrane was then washed three times with TBS and imaged on a Storm 860 (Molecular Dynamics, Sunnyvale, Calif.) in blue fluorescence mode.

[2] = test system: lipopolysaccharides from Salmonella; assay: Dot blot binding of membrane-absorbed peptides to FITC-LPS from Salmonella; conditions: 0-20 μg peptide on PVDF membrane, FIG. 1(b)
Description: as §1

[3] = test system: E.coli 0157: H7 cells; assay: Whole-cell binding of E.coli to immobilized Cys-Cecropin P1 (HRP antibody/TMB, absorbance 650 nm); set-up: species or system E coli serotype 0157: H7 (non-pathogenic); conditions: immobilized peptide, E.coli 0157: H7 whole cells, FIG. 2
Description: The binding of cecropin P1 to whole E.colicells was tested as follows: Preparation of whole bacterial cells—E coli serotype 0157: H7 (non-pathogenic) cells from a frozen stock were grown overnight in Luria Broth Base (Life Technologies, Inc., Paisely, Scotland). The bacterial cells were collected by centrifugation at 9000×g for 5 min. The cell pellet was washed 2 times with PBS pH 7.2 and collected each time by centrifugation. The washed cell pellet was resuspended in PBS pH 7.2 to a final volume equivalent to the original culture volume. Optical density of the cell suspension was detected on a Beckmann DU840 spectrophotometer at an absorbance of 540 nm. An absorbance of 4.5 is approximately 3.5×10^9 cfu/ml.
Peptide immobilization—Cys-Cecropin P1 (a modified cecropin p1 prepared by solid phase peptide synthesis wherein cysteine is added to the C-terminus of cecropin p1) was diluted into PBS pH 6.5, 1 mM EDTA, 0.0001 mM DTT (Sigma Chemical Co., St. Louis, Mo.) for immobilization onto sulfhydryl-bind strip wells (Corning Inc., Corning, N.Y.). […]
Detection and color development—E.coli 0157: H7 cells (prepared as above) were added to each well containing immobilized cys-cecropin p1 (described as above). […] Absorbance was then measured on a Thermomax microplate reader (Molecular Devices, Sunnyvale, Calif.) at 650 nm.

Substance	binding to lipopolysaccharides from E. coli [1]	binding to lipopolysaccharides from Salmonella [2]	saturation of whole-cell binding occurs at a concentration of [3]
Buforin I	did not bind	did not bind	
Cecropin P1 (SWLSKTAKKLENSAKKRISEGIAIAIQGGPR; Cecropin-P1; UniProt P14661 14-44, looked up)	did bind	did bind	45 to 50 µg
Indolicidin	did bind	did bind	
PGQ	did bind	did bind	
